Molecular target: T1, WT hA3ARs (Homo sapiens, UniProt P0DMS8)
T1 construct: The full-length mouse (as previously described^25), human (purchased from the cDNA Resource Center), and human/mouse chimeric
T1 sequence (P0DMS8 1-318): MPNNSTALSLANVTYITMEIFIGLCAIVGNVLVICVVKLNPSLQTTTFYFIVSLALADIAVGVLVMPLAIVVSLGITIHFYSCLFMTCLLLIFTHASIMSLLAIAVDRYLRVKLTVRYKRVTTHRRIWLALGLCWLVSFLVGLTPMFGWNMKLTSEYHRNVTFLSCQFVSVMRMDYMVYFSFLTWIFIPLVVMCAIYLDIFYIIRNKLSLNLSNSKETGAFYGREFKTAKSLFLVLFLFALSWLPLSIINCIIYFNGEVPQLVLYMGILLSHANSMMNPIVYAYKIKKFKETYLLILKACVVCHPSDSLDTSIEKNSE
Assay: [35S]GTPγS binding assay, Cl-IB-MECA concentration-response with modulator, HEK293 cell membranes
Format: biochemical
Conditions: for Emax (%): PAM derivative 1.0 μM, [35S]GTPγS binding induced by Cl-IB-MECA, WT hA3ARs, mean ± SEM, n = 3; for Emax (%) / IC50 ratio: Table 3; for IC50 ratio: ratio of IC50 values for Cl-IB-MECA, DMSO control compared to 100 nM PAM derivative
From the text: Creation of stable HEK293 cell lines expressing wild-type and human/mouse chimeric A3ARs: The full-length mouse (as previously described^25), human (purchased from the cDNA Resource Center), and human/mouse chimeric (custom synthesized by TOP Gene Technologies, St. Laurent, Quebec) A3AR cDNAs were subcloned into pcDNA3.1. The constructs were transfected into HEK293 cells (American Type Culture Collection, Manassas, VA) using Lipofectamine 2000 reagent (Invitrogen, Waltham, MA) and selected with 2 mg/ml of G418 in cell culture media (DMEM with 10% fetal bovine serum, 100 units/ml penicillin, and 100 μg/ml streptomycin). Cell lines derived from individual clones were maintained in cell culture media containing 0.6 mg/ml G418.
Membrane preparations: Transfected HEK293 cells were washed with PBS followed by homogenization in Buffer A containing 10 mM Na+-HEPES, 10 mM EDTA, 1 mM benzamidine (pH 7.4) and centrifugation at 27,000×g for 30 min at 4° C. Cell pellets were subsequently re-homogenized in HE buffer containing 10 mM Na+-HEPES, 1 mM EDTA, 1 mM benzamidine (pH 7.4) and re-centrifuged. The supernatant was discarded, and cell pellets were resuspended in HE buffer containing 10% sucrose and stored at −20° C.
[^35S]GTPγS binding assays: Cell membranes (5 μg protein) isolated from transfected HEK293 cells were pre-treated with modulators for one hour in 100 μl GTPγS binding buffer (50 mM Tris HCL [pH 7.4], 1 mM EGTA, 10 mM MgCl2, 100 mM NaCl, 0.004% CHAPS, and 0.5% BSA) in a 96-well large-volume polypropylene assay plate. In all assays, ZM-241385 (300 nM) and PSB-603 (300 nM) were included to block A2BARs expressed endogenously in HEK293 cells. Adenosine deaminase (ADA) (1 μl/ml) was also included to degrade any endogenous adenosine that might be produced during the assay, except when adenosine was used as the orthosteric agonist. The reactions were initiated by the addition of ~0.2 nM [^35S]GTPγS and agonist in 100 μl GTPγS binding buffer and allowed to incubate for two hours at room temperature. At the end of the two-hour incubation period, the membranes were harvested by rapid filtration through Whatman GF/B filters that had been pre-soaked for two hours in GTPγS binding buffer containing 0.02% CHAPS using a 96-well cell harvester (Brandel, Gaithersburg, MD). Radioactivity trapped in the filters was measured by liquid scintillation counting. Non-specific binding of [^35S]GTPγS was determined in the presence of 10 μM unlabeled GTPγS.
Data Analysis: EMax and EC50 values were calculated from data obtained from agonist concentration-response curves according to: E=([…])/(EC50+x), in which x is the agonist concentration. All values were statistically compared using a two-tailed unpaired Student's t-test or two-tailed paired Student's t-test, as indicated. For dissociation binding assays, fit to a one-phase exponential decay model: Y=(Y0−NS)^(−kxt), in which Y0 is specific binding at time 0, k is the dissociation rate constant, and t is the elapsed time. All values are presented as the mean±SEM. A p value <0.05 was considered statistically significant.
The two series of modulators were evaluated in a [^35S]GTPγS binding assay using isolated HEK293 cell membranes expressing the h A3AR, which detects receptor-induced G protein activation. For these studies, concentration-response curves with the orthosteric agonist Cl-IB-MECA were assessed in the presence of vehicle or 0.1, 1, or 10 μM modulator compound.

[1] = increasing concentrations of modulator (0.1, 1, 10 μM)

SMILES | Emax (%) | IC50 ratio | effect on EC50 (potency) of agonist Cl-IB-MECA, in words [1] | effect on Emax (efficacy) of agonist Cl-IB-MECA, in words [1]
Clc1ccc(Nc2nc3ccccc3c3sc(C4CCCCC4)nc23)cc1Cl [42 (RK005-79-1, BS1001)] | 192.6 ± 11.2 | 0.505 | – | –
Clc1ccc(Oc2nc3ccccc3c3[nH]c(C4CCCCC4)nc23)cc1Cl [46 (RK007-4-1, BS1006)] | 150.6 ± 5.8 | 0.738 | – | –
CN(c1ccc(Cl)c(Cl)c1)c1nc2ccccc2c2[nH]c(C3CCCCC3)nc12 [45 (RK006-100-1, BS1007)] | 127.0 ± 6.0 | 0.491 | – | –
Clc1ccc(Nc2nc3ccccc3c3oc(C4CCCCC4)nc23)cc1Cl [41 (RK005-84-1, BS1002)] | 149.9 ± 8.8 | 0.406 | – | –
Cn1c(C2CCCCC2)nc2c(Nc3ccc(Cl)c(Cl)c3)nc3ccccc3c21 [35 (MRS8206)] | 177.8 ± 11.5 | 1.12 | – | –
OCCn1c(C2CCCCC2)nc2c(Nc3ccc(Cl)c(Cl)c3)nc3ccccc3c21 [36 (MRS8236)] | 119.3 ± 6.2 | 0.764 | – | –
Clc1ccc(Sc2nc3ccccc3c3[nH]c(C4CCCCC4)nc23)cc1Cl [47 (RK007-2-1, BS1005)] | 137.6 ± 7.3 | 1.11 | – | –
O=C(Nc1cc(Nc2ccc(Cl)c(Cl)c2)nc2ccccc12)C1CCCCC1 [LUF6096, reference compound] | – | – | without reducing the potency of CI-IB-MECA | produced the greatest increase in efficacy
